In article PMC5059851, “Inhibition of Hedgehog-dependent tumors and cancer stem cells by a newly identified naturally occurring chemotype” (Cell Death & Disease, 2016):
pIC50: −log10 of the molar value. “Also recorded” adds a separate entry of the source.

Assays:
[1] = system: Hh pathway (Gli-responsive firefly luciferase reporter); assay: Hh-dependent Gli-luciferase reporter assay in SAG-treated NIH3T3 Shh-Light II cells; type: cell-based; details: SAG (200 nM)-treated NIH3T3 Shh-Light II cells, 48 h, normalized to Renilla; N.A. = Not Active
Procedure: The inhibitory properties of the potential Smo antagonists 1–17 were investigated in a luciferase reporter assay that is widely used for characterizing Hh inhibitors. NIH3T3 Shh-Light II cells, stably incorporating a Gli-responsive firefly luciferase reporter (Gli-RE),[25] were treated with the synthetic Smo agonist SAG[24] alone or in combination with the selected small molecules to evaluate their dose–response ability to suppress Hh pathway. […] We excluded the possibility that inhibition activity in this assay was mediated by cytotoxicity because no decrease was shown in the luciferase assay control Renilla as observed instead for 13–17.
The luciferase assay was performed in Shh-Light II cells, stably incorporating a Gli-responsive luciferase reporter and the pRL-TK Renilla (normalization control), treated for 48 h with SAG (200 nM) and the studied compounds. Luciferase and Renilla activity were assayed with a dual-luciferase assay system according to the manufacturer's instruction (Biotium Inc., Hayward, CA, USA). Results are expressed as luciferase/Renilla ratios and represent the mean±S.D. of three experiments, each performed in triplicate.

[2] = system: WNT/β-Catenin pathway; assay: WNT/β-Catenin luciferase reporter assay (Top Flash-luciferase and β-Catenin) in MEFs WT; type: cell-based, mouse; details: increasing concentrations, 24 h
Procedure: Figure 2 Compound 12 inhibits Hh signaling without affecting AP1/Jun and WNT/β-Catenin pathways. (a) The graphs show the Hh target genes expression levels in Ptch1^−/− MEFs treated for 48 h with 12 or DMSO as control. mRNA levels were determined by quantitative real-time PCR (qRT-PCR) normalized to endogenous control (β2-microglobulin and HPRT). Pfkfb3 gene was used as negative control. *P<0.05 versus CTR. (b and c) AP1/Jun and WNT/β-Catenin pathways activity were assayed in MEFs WT transfected with MMP1-luciferase reporter and c-Jun (b) or Top Flash-luciferase reporter and β-Catenin (c), respectively, in the presence or absence of increasing concentrations of compound 12. Treatment time was 24 h, and normalization was against Renilla luciferase.

[3] = system: Hh pathway readouts, stemness markers and growth genes in MB stem-like cells; assay: qRT-PCR of Hh, proliferation and stemness targets in MB stem-like cells; type: cell-based, mouse; details: 48 h
Procedure: Figure 5 Compound 12 inhibition of Hh-dependent MB tumor cell growth. […] (a and b) After the indicated times, a trypan blue count was performed to determine the growth rate of viable cells. (c) Gli1 mRNA expression levels were determined by qRT-PCR normalized to endogenous control (β2-microglobulin and HPRT). (d–f) Compound 12 inhibits MB-SCs self-renewal. (d) Suspension of single MB-SCs isolated from Ptch1^+/− mice were cultured in stem cell medium to allow the formation of primary neurospheres. Primary neurospheres were dissociated and treated with increasing concentrations of compound 12, Cyclopamine or DMSO only. After 7 days of treatment, the number of secondary neurospheres derived from a known number of single cells was counted. The self-renewal MB-SCs' capability is expressed as percentage of neurosphere-forming cells. […]
Total RNA was isolated with Trizol (Invitrogen/Life Technologies, Carlsbad, CA, USA) and reverse transcribed with SensiFAST cDNA Synthesis Kit (Bioline Reagents Limited, London, UK). Quantitative real-time PCR (Q-PCR) analysis of Gli1, Gli2, Ptch1, Bmp2, Pfkfb3, CycD1, CycD2, Pcna, Oct4, Nanog, β-2 microglobulin, β-actin and HPRT mRNA expression was performed on each cDNA sample using the VIIA7 Real Time PCR System employing Assay-on-Demand Reagents (Life Technologies). […]

[4] = system: ASZ001 BCC cells; assay: Trypan blue growth count of ASZ001 BCC cells; type: cell-based, mouse; details: compared with Cyclopamine, Vismodegib and LDE-225
Procedure: (§1) After the indicated times, a trypan blue count was performed to determine the growth rate.
Cell proliferation was evaluated by BrdU detection (Roche, Welwyn Garden City, UK). Briefly, after the BrdU pulse (24 h for GCPs) cells were fixed with 4% paraformaldehyde and permeabilized with 0.2% Triton X-100, and BrdU detection was performed according to the manufacturer's instructions. Nuclei were counterstained with Hoechst reagent. At least 500 nuclei were counted in triplicate, and the number of BrdU-positive nuclei was recorded. To determine the growth rate of viable cells, a trypan blue count was performed after a treatment period of 24–48–72 h with studied compound.

[5] = system: Gli1 mRNA; assay: Gli1 mRNA (qRT-PCR) in ASZ001 BCC cells; type: cell-based, mouse; details: after drug treatment
Procedure: as §1
Total RNA was isolated with Trizol (Invitrogen/Life Technologies, Carlsbad, CA, USA) and reverse transcribed with SensiFAST cDNA Synthesis Kit (Bioline Reagents Limited, London, UK). Quantitative real-time PCR (Q-PCR) analysis of Gli1, Gli2, Ptch1, Bmp2, Pfkfb3, CycD1, CycD2, Pcna, Oct4, Nanog, β-2 microglobulin, β-actin and HPRT mRNA expression was performed on each cDNA sample using the VIIA7 Real Time PCR System employing Assay-on-Demand Reagents (Life Technologies).

## COc1ccc(C=CC(=O)c2cc(OC)c(OC)cc2OC)cc1OC [Compound 12, 3-(3,4-dimethoxy-phenyl)-1-(2,4,5-trimethoxy-phenyl)-2-propen-1-one]
[1]
  pIC50: 5.35
[2]
  luciferase activity driven by Wnt/β-catenin signaling: without affecting luciferase activity; also recorded: inactive
[3]
  Hh pathway activity in MB stem-like cells (Gli1, Gli2, Ptch1, Nanog, Oct4, cyclins D1 and D2, Pcna mRNAs): reduced Hh pathway activity
[4]
  ASZ001 BCC cell growth in vitro: significant efficacy to impair ASZ001 BCC cell growth
[5]
  Gli1 mRNA levels in ASZ001 BCC cells: decrease of Gli1 mRNA levels
